In one experiment the target is T1, CCKB receptor (Mus musculus, UniProt P56481).
T1 construct: The whole brains from male mice (CD1 22-25 g; Charles River) were removed; from tissue; host or cells: cerebral cortex membranes of male CD1 mice
T1 sequence (P56481 1-453): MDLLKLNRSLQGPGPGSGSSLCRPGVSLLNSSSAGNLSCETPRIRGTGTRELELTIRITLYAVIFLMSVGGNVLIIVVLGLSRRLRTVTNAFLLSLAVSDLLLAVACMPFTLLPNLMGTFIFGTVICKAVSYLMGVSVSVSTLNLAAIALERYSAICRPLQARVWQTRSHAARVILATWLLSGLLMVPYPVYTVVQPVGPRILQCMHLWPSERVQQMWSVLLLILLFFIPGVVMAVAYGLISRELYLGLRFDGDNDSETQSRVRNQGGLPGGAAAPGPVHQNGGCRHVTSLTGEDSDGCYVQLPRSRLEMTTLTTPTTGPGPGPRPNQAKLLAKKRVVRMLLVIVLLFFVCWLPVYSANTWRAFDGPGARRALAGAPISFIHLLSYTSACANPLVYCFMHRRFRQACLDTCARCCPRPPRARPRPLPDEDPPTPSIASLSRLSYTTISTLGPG
Put plainly: CCKB receptor radioligand binding assay in mouse cortical membranes. The settings on record: [125I]-CCK8(S) 200 pM, 150 min at 21±3°, read-out: CCKB pKi (converted). Put shortly: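 Bound radioactivity was gamma-counted after rapid GF/B filtration and cold 50 mM Tris-HCl (pH 7.4) washes. The tissue was cerebral cortex from male CD1 mice, prepared as twice-centrifuged membranes in pH 7.2 HEPES/NaCl/KCl/MgCl2/EDTA buffer with bacitracin at 20 mg/ml original wet weight.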

For a further experiment, the target named is T2, gastrin receptor (Rattus norvegicus, UniProt P30553).
T2 construct: The stomach was excised and flushed with ca. 1 ml of unbuffered physiological saline solution; from tissue; host or cells: isolated whole stomach of immature rats (ca. 21 days old)
T2 sequence (P30553 1-452): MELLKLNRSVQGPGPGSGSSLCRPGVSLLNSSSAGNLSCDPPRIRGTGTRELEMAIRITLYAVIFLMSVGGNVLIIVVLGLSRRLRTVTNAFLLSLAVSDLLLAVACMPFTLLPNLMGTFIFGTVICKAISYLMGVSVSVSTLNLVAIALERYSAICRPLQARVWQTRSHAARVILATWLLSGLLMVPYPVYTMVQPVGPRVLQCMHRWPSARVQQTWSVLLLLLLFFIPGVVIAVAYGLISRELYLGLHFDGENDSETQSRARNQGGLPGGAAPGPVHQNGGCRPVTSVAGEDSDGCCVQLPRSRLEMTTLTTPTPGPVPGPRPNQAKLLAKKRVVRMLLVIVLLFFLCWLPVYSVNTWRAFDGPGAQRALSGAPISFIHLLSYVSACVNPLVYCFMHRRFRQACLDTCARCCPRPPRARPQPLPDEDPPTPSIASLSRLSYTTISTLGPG
Kind of experiment: gastrin antagonist activity in immature rat stomach assay (pentagastrin dose-response, acid secretion). The following applies: isolated immature rat stomach, cumulative pentagastrin dose-response curves, read-out: Gastrin pKb (converted). In a few lines: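 Gastrin antagonism was measured as the effect on cumulative pentagastrin dose-response curves of acid output, recorded by pH electrode in the perfusate of an excised immature rat stomach (ca. 21 days old). Test compound was placed in the serosal bath (37°, 3×10^−8 M 5-methylfurmethide) 60 min before pentagastrin.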

Structures can show the parent of a compound that is named as a salt.

With `Cc1ccc(NC(=O)c2nc(-c3c(C)cccc3C)[nH]c2CCC23CC4CC(CC(C4)C2)C3)cc1C(=O)O` [Example 153, 5-{[5-(2-Adamantan-1-yl-ethyl)-2-(2,6-dimethyl-phenyl)-1H-imidazole-4-carbonyl]-amino}-2-methyl-benzoic Acid], the Ki at CCKB receptor was 4.9 nM. The Kb at gastrin receptor was 57.5 nM.
On the same counts, the results for `O=C(O)c1cccc(NC(=O)c2nc(-c3ccc(Cl)cc3Cl)[nH]c2CCC23CC4CC(CC(C4)C2)C3)c1` [Example 146, 3-{[5-(2-Adamantan-1-yl-ethyl)-2-(2,4-dichlorophenyl)-1H-imidazole-4-carbonyl]-amino}-benzoic Acid] are 151 nM and 51.3 nM.
In the case of `Cc1ccc(NC(=O)c2nc(C3CCCCC3)[nH]c2CCC2CCCCCC2)cc1C(=O)O` [Example 167, 5-{[5-(2-Cycloheptyl-ethyl)-2-cyclohexyl-1H-imidazole-4-carbonyl]-amino}-2-methyl-benzoic Acid], the Ki at CCKB receptor was 28.2 nM. Moreover, at gastrin receptor, the Kb is 13.8 nM.
On the same counts, the results for `CC(C)c1nc(C(=O)Nc2cccc(C(=O)O)c2)c(CCC23CC4CC(CC(C4)C2)C3)[nH]1` [Example 78, 3-{[5-(2-Adamantan-1-yl-ethyl)-2-isopropyl-1H-imidazole-4-carbonyl]-amino}-benzoic Acid] are 186 nM and 20.9 nM.
In the same order, the values of `O=C(O)c1cccc(NC(=O)c2nc(-c3ccccc3F)[nH]c2CCC23CC4CC(CC(C4)C2)C3)c1` [Example 50, 3-{[5-(2-Adamantan-1-yl-ethyl)-2-(2-fluoro-phenyl)-1H-imidazole-4-carbonyl]-amino}-benzoic Acid] are 331 nM and 26.3 nM.
As for `Cc1ccc(NC(=O)c2nc(-c3ccccn3)[nH]c2CCC23CC4CC(CC(C4)C2)C3)cc1C(=O)O` [Example 179, 5-{[5-(2-Adamantan-1-yl-ethyl)-2-pyridine-2-yl-1H-imidazole-4-carbonyl]-amino}-2methyl-benzoic Acid], the Ki at CCKB receptor is 40.7 nM. Besides, the Kb on gastrin receptor was 46.8 nM.
Take `Cc1ccccc1-c1nc(C(=O)Nc2cccc(CCC(=O)O)c2)c(CCC23CC4CC(CC(C4)C2)C3)[nH]1` [Example 97, 3-(3-{[5-(2-Adamantan-1-yl-ethyl)-2-o-tolyl-1H-imidazole-4-carbonyl]-amino}-phenyl)-propionic Acid Trifluoroacetic Acid Salt]: the Ki at CCKB receptor is 6.76 nM. Also, the Kb at gastrin receptor was 501 nM.
As to `O=C(O)c1cccc(NC(=O)c2nc(-c3c(F)cccc3F)[nH]c2CCC23CC4CC(CC(C4)C2)C3)c1` [Example 61, 3-{[5-(2-Adamantan-1-yl-ethyl)-2-(2,6-difluoro-phenyl)-1H-imidazole-4-carbonyl]-amino}-benzoic Acid], the Ki at CCKB receptor was 148 nM. Moreover, at gastrin receptor, the Kb was 31.6 nM.
On the same counts, the results for `Cc1ccccc1-c1nc(C(=O)NCC(=O)Nc2cccc(C(=O)O)c2)c(CCC23CC4CC(CC(C4)C2)C3)[nH]1` [Example 103] are 263 nM and 661 nM.
On the same counts, the results for `CCc1ccccc1-c1nc(C(=O)Nc2ccc(C)c(C(=O)O)c2)c(CCC23CC4CC(CC(C4)C2)C3)[nH]1` [Example 159, 5-{[5-(2-Adamantan-1-yl-ethyl)-2-(2-ethyl-phenyl)-1H-imidazole-4-carbonyl]-amino}-2-methyl-benzoic Acid] are 12.3 nM and 316 nM.
With `O=C(O)c1cccc(NC(=O)c2nc(-c3ccccc3C(F)(F)F)[nH]c2CCC23CC4CC(CC(C4)C2)C3)c1` [Example 56, 3-{[5-(2-Adamantan-1-yl-ethyl)-2-(2-trifluoromethyl-phenyl)-1H-imidazole-4-carbonyl]-amino}-benzoic Acid], on CCKB receptor, the Ki is 240 nM. In addition, the Kb at gastrin receptor was 18.2 nM.
On the same counts, the results for `CC1(C)C2CC[C@]1(C)C(c1nc(C(=O)Nc3cccc(C(=O)O)c3)c(CCC34CC5CC(CC(C5)C3)C4)[nH]1)C2` (mixture of isomers) [Example 205, 3-{[5-(2-Adamantan-1-yl-ethyl)-2-[(1R,2RS)-1,7,7-trimethyl-bicyclo[2.2.1]hept-2-yl]-1H-imidazole-4-carbonyl]-amino}-benzoic Acid] are 47.9 nM and 8.32 nM.
In the same order, the values of `O=C(O)c1cccc(NC(=O)c2nc(C3CC4C=CC3C4)[nH]c2CCC23CC4CC(CC(C4)C2)C3)c1` (racemic) [Example 117, (±)-exo-3-{[5-(2-Adamantan-1-yl-ethyl)-2-bicyclo[2.2.1]hept-5-ene-2-yl-1H-imidazole-4-carbonyl]-amino}-benzoic Acid] are 36.3 nM and 3.63 nM.
In the same order, the values of `O=C(O)c1cccc(NC(=O)c2nc(-c3ccc(F)cc3)[nH]c2CCC23CC4CC(CC(C4)C2)C3)c1` [Example 54, 3-{[5-(2-Adamantan-1-yl-ethyl)-2-(4-fluoro-phenyl)-1H-imidazole-4-carbonyl]-amino}-benzoic Acid] are 309 nM and 813 nM.
Take `O=C(O)c1cccc(NC(=O)c2nc(-c3ccco3)[nH]c2CCC23CC4CC(CC(C4)C2)C3)c1` [Example 185, 3-{[5-(2-Adamantan-1-yl-ethyl)-2-furan-2-yl-1H-imidazole-4-carbonyl]-amino}benzoic Acid]: the Ki at CCKB receptor is 457 nM. Moreover, the Kb at gastrin receptor is 155 nM.
On the same counts, the results for `CC(Cc1[nH]c(C2CCCCC2)nc1C(=O)Nc1cccc(C(=O)O)c1)C12CC3CC(CC(C3)C1)C2` (racemic) [Example 132, (±)-3-{[5-(2-Adamantan-1-yl-propyl)-2-cyclohexyl-1H-imidazole-4-carbonyl]-amino}-benzoic Acid] are 42.7 nM and 8.13 nM.
On the same counts, the results for `Cc1ccccc1-c1nc(C(=O)Nc2ccc(N)c(C(=O)O)c2)c(CCC23CC4CC(CC(C4)C2)C3)[nH]1` [Example 241, 5-{[5-(2-Adamantan-1-yl-ethyl)-2-o-tolyl-1H-imidazole-4-carbonyl]-amino}-2-amino-benzoic Acid Dihydrochloride] are 60.3 nM and 4680 nM.
In the same order, the values of `Cc1ccccc1-c1nc(C(=O)Nc2cccc(C(=O)O)c2)c(CCC23CC4CC(CC(C4)C2)C3)[nH]1` [Example 57, 3-{[5-(2-Adamantan-1-yl-ethyl)-2-o-tolyl-1H-imidazole-4-carbonyl]-amino}-benzoic Acid] are 120 nM and 58.9 nM.
`O=C(O)c1cccc(NC(=O)c2cc(-c3ccccc3)[nH]c2CC2CCCCCC2)c1` [Example 12, 3-[(2-Cycloheptylmethyl-5-phenyl-1H-pyrrole-3-carbonyl)-amino]-benzoic Acid]: the Ki on CCKB receptor was 1120 nM. Moreover, the Kb on gastrin receptor was 1000 nM.
In the case of `Nc1ccc(C(=O)O)cc1NC(=O)c1nc(C2CCCCC2)[nH]c1CCC12CC3CC(CC(C3)C1)C2` [Example 131, 3-{[5-(2-Adamantan-1-yl-ethyl)-2-cyclohexyl-1H-imidazole-4-carbonyl]-amino}-4-amino-benzoic Acid], at CCKB receptor, the Ki was 407 nM. In addition, the Kb on gastrin receptor is 339 nM.
Take `Cc1cc(F)ccc1-c1nc(C(=O)Nc2cccc(C(=O)O)c2)c(CCC23CC4CC(CC(C4)C2)C3)[nH]1` [Example 96, 3-{[5-(2-Adamantan-1-yl-ethyl)-2-(4-fluoro-2-methyl-phenyl)-1H-imidazole-4-carbonyl]-amino}-benzoic Acid]: the Ki on CCKB receptor is 166 nM. Also, the Kb at gastrin receptor was 12.3 nM.
On the same counts, the results for `Cc1ccccc1-c1nc(C(=O)Nc2cccc(C(=O)O)c2)c(CCC23CC4CC(CC(C4)C2)C3)n1C` [Example 73, 3-{[5-(2-Adamantan-1-yl-ethyl)-1-methyl-2-o-tolyl-1H-imidazole-4-carbonyl]-amino}-benzoic Acid] are 417 nM and 6.61 nM.
On the same counts, the results for `O=C(O)c1cc(NC(=O)c2nc(C3CCCCC3)[nH]c2CCC23CC4CC(CC(C4)C2)C3)ccc1F` [Example 254, 5-{[5-(2-Adamantan-1-yl-ethyl)-2-cyclohexyl-1H-imidazole-4-carbonyl]-amino}-2-fluoro-benzoic Acid] are 12.6 nM and 11.7 nM.
